{
  "source": "patent US20260240826A1",
  "about": "“COMPOSITIONS FOR PD-L1 INHIBITION AND METHODS OF USE THEREOF” (ARIZONA BOARD OF REGENTS ON BEHALF OF THE UNIVERSITY OF …, priority 2023, published 2026)",
  "tested_on": "AP-1 luciferase reporter HaCaT cells",
  "assay": "AP-1 reporter luciferase assay in HaCaT keratinocytes",
  "format": "cell-based, human",
  "conditions": "harvest 12 hr after UVB",
  "description": "HaCaT cells stably transfected with the TRE-driven luciferase plasmid (“AP-1 luciferase” cells) were seeded in 6-well plates, grown to 70% confluence and serum starved overnight to reduce background signaling. Cells were pretreated with BMS-202 or vehicle (DMSO) for 1 hr, then washed twice with PBS prior to exposure to […]. Cells were then washed once more with PBS before being placed into fresh starvation media with vehicle or BMS-202 until harvest 12 hr later. Cells were lysed in Promega's Cell Culture Lysis Buffer (1×), and a total of 10 μg protein per sample replicate was assayed for luciferase activity according to the manufacturer's instructions for the Luciferase Assay System (Promega) using a TD 20/20 luminometer (Turner Designs). Experimental triplicates were averaged and the means from each independent experiment were analyzed by Student's t-test for statistical significance. Results are representative of three independent experiments.",
  "data": [
    {"smiles": "COc1nc(OCc2cccc(-c3ccccc3)c2C)ccc1CNCCNC(C)=O", "note": "[BMS-202]", "values": [
      {"measurement": "UVB-induced AP-1 luciferase signal intensity", "result": "significant inhibition"}
    ]}
  ]
}
